Reference: the OPERA property sets (Mansouri et al. 2018)
Where a SMILES comes first, the peptide text is derived from it.

Compound | logP
Cc1cc2cc3c(C)cc(=O)oc3cc2o1 | 2.82
COc1cc(NS(C)(=O)=O)ccc1-c1cn2cccnc2n1 | 0.72
CNC(Cc1ccccc1)C(=O)N1CCCC1C(=O)NCC1CCC(N)CC1 (stereo not drawn) | 1.12
CCCNc1nc(CCC)nc(N2CCOCC2)n1 | 2.7
CC(C)NCC(O)c1ccc([N+](=O)[O-])cc1 (stereo not drawn) | 1.28
Cc1ccccc1-n1nnnc1N | 0.93
CCC(C)C(N)C(=O)NC(C(=O)NC(C(=O)NC(C(=O)NC(C(=O)O)C(C)CC)C(C)C)C(C)C)C(C)C (stereo not drawn) (H-IVVVI-OH; configuration not given here) | -0.89
COc1cnc(C2=NC(C)(C(C)C)C(=O)N2)c(C(=O)O)c1 (stereo not drawn) | 0.61
COC(=O)C1=C(C)NC(C)=C(C(=O)OCc2cccnc2)C1c1cccc2c1OCO2 (stereo not drawn) | 3.61
CNC(C)Cc1ccc(N)cc1 (stereo not drawn) | 0.81
CCOP(=O)(Oc1ccc(C#N)cc1)c1ccccc1 (stereo not drawn) | 2.44
Cc1ccc(OCC2CN=C(N)O2)c(C)c1 (stereo not drawn) | 2.23
COc1cc(Cl)cc(Cl)c1O | 2.86
Nc1ccc(S(=O)(=O)Nc2cc(Br)cc3[nH]ccc23)cc1 | 2.77
CCCCCCNc1[nH]cnc2ncnc1-2 | 3.16
COc1ccc(O)c(C2=NC(C)(C(=O)O)CS2)c1 (stereo not drawn) | 1.8
CCCNC(=O)c1cccc2nc(N)nc(N)c12 | 0.83
C=C(C)C(=O)OCC(COC(=O)C(=C)C)COC(=O)C(=C)C | 3.53
Cc1oc2cc(C)c3ccc(=O)oc3c2c1C | 3.36
CC(C)(O)C1CCC2(C)CCCC(=O)C2C1 (stereo not drawn) | 1.92
CCC(C)C(N)C(=O)NC(C(=O)O)C(C)CC (stereo not drawn) (H-Ile-Ile-OH; configuration not given here) | -1.82
CCOC(=O)C1=C(C)NC(C)=C(C(=O)OC)C1c1cc(OC)c(OC)c(OC)c1 (stereo not drawn) | 3.39
CC(C)OC(=O)CC(C(=O)OC(C)C)S(=O)(=O)c1ccc([N+](=O)[O-])cc1 (stereo not drawn) | 2.18
ClCC1(C(Cl)Cl)C2CC(Cl)(Cl)C1(C(Cl)Cl)CC2(Cl)Cl (stereo not drawn) | 5.96
c1ccc(N2CCN(CCn3nnc4ccccc43)CC2)cc1 | 2.74

Compound | logP
Cc1nc(C(Cl)(Cl)Cl)nc(C(Cl)(Cl)Cl)n1 | 3.78
CCOc1cc2ncnc(Nc3cccc(Cl)c3)c2cc1OCC | 4.31
CC(=O)OC1CCCC2(C)CCC(C(C)(C)OC(C)=O)CC12 (stereo not drawn) | 5.06
CNC1CCc2c(OC)cccc2C1C (stereo not drawn) | 2.42
Cc1cccc(OCC2CN=C(N)O2)c1 (stereo not drawn) | 1.75
Cc1ccc(CO)c(C=NNC(=O)c2cccc(Cl)c2)c1O | 3.83
Nc1nc(N)c2c(Oc3ccccc3)cccc2n1 | 2.78
CC(C)c1cccc(O)c(=O)c1 | 1.82
O=C1NC(Cc2c[nH]c3ccccc23)C(=O)NC1Cc1c[nH]c2ccccc12 (stereo not drawn) | 2.04
O=C(O)c1ccccc1NC(=O)c1c(O)cccc1O | 3.52
Cc1nccc2c3ccccc3n(C)c12 | 3.01
Cn1c(N)nc2ncc(-c3ccccc3)cc21 | 2.23
Clc1ccc(C=NOCCc2nnc(-c3ccccc3)o2)cc1 | 3.01
CCCCOC(NC(=O)c1ccccc1O)C(Cl)(Cl)Cl (stereo not drawn) | 4.45
CC(C)(C)NCc1ccc(S(=O)(=O)c2csc(S(N)(=O)=O)c2)cc1 | 1.76
CC(=O)OCCOC(=O)C(C)c1cccc(C(=O)c2ccccc2)c1 (stereo not drawn) | 3.1
CCCCc1c(O)c(=O)cc(C)n1C | 0.9
CCc1cccc(COC(=O)C2C(C=C(C)C)C2(C)C)c1 (stereo not drawn) | 6.51
CCC(=O)[C@@]1(C)CC[C@H]2[C@@H]3CCC4=CC(=O)CCC4=C3CC[C@@]21C | 4.04
COc1ccc([N+](=O)[O-])c(C)c1 | 2.32
CC(C)CC(NC(=O)C(N)Cc1c[nH]c2ccccc12)C(=O)NC(CC(C)C)C(=O)NC(C(=O)O)C(C)C (stereo not drawn) (H-WLLV-OH; configuration not given here) | 0.23
CC(C)CC(NC(=O)C(C)NC(=O)C(C)NC(=O)C(C)NC(=O)C(N)Cc1ccccc1)C(=O)O (stereo not drawn) (H-FAAAL-OH; configuration not given here) | -2.23
ClCC1(CCl)C2C(Cl)C(Cl)C1(CCl)C(Cl)(Cl)C2Cl (stereo not drawn) | 5.74
O=C(Nc1ncnc2nc[nH]c12)c1ccccc1 | 1.12
CCCCCCCNC1=NS(=O)N=C1NCCSCc1ccc(CN(C)C)o1 (stereo not drawn) | 3.91

Compound | logP
CCNC(=S)NS(=O)(=O)c1cnccc1NC1CCCCCCC1 | 3.86
CCOC(=O)NNc1ccccc1 | 1.22
COc1ccc2c(c1)COP(=O)(OCC1C=CC(n3cc(C)c(=O)[nH]c3=O)O1)O2 (stereo not drawn) | 0.36
CCCCCNc1ncnc2c1ncn2C1OC(CO)C(O)C1O (stereo not drawn) | 1.67
OCCCCCCNc1ncnc2nc[nH]c12 | 1.14
NC1=NCC(COc2cccc(Cl)c2)O1 (stereo not drawn) | 2.09
O=C(O)CCCCON=C(c1ccnnc1)c1cccc(C(F)(F)F)c1 | 2.99
COc1cccc2c1C(=O)c1c(O)c3c(c(O)c1C2=O)CC(O)(C(=O)CO)CC3OC1CC(N(C)C)C(O)C(C)O1 (stereo not drawn) | 1.28
CC1NCCc2c1[nH]c1ccc([N+](=O)[O-])cc21 (stereo not drawn) | 2.07
Cc1oc2nc3oc(=O)cc(C)c3cc2c1C | 2.25
CC1NCCc2c1[nH]c1ccccc21 (stereo not drawn) | 2.06
NC(Cc1ccccc1)C(=O)NC(Cc1ccccc1)C(=O)O (stereo not drawn) (H-Phe-Phe-OH; configuration not given here) | -0.85
O=C1N=C(N2CCOCC2)CN1Cc1ccccc1Cl | 1
CC(C)CC(NC(=O)C(CC(C)C)NC(=O)C(N)CO)C(=O)O (stereo not drawn) (H-Ser-Leu-Leu-OH; configuration not given here) | -2.03
CC1CC(=O)NN=C1c1ccc(-n2cnc3c2CCCC3)cc1 (stereo not drawn) | 2.52
COC(=O)c1ccc(Cl)cc1[N+](=O)[O-] | 2.35
CNC(C)Cc1ccc(F)cc1 (stereo not drawn) | 2.15
O=c1ccc2cc3ccsc3cc2o1 | 2.27
Cc1oc2nc3oc(=O)ccc3cc2c1C | 1.97
CNC(=O)c1cn2c(C)c(C)nc2c2c1CCC(c1ccccc1)O2 (stereo not drawn) | 3.6
NCC(=O)NC(Cc1ccccc1)C(=O)NC(Cc1ccc(O)cc1)C(=O)O (stereo not drawn) (H-Gly-Phe-Tyr-OH; configuration not given here) | -1.96
Cc1ccc(S(=O)(=O)C(=Cc2ccccc2)C(=O)OC(C)C)cc1 | 3.92
CCCC(=NOCC)C1=C(O)CC2(CCCCC2C)OC1=O (stereo not drawn) | 3.9
Cc1ccc([N+](=O)[O-])c(C(=O)O)c1 | 1.63
CCOC(=O)C1=C(C)NC(C)=C(C(=O)OC)C1c1ccccc1 (stereo not drawn) | 4.14

Compound | logP
CN(C/C=C/C#CC(C)(C)C)Cc1cccc2ccccc12 | 6
COc1ccc(-c2cn3cccnc3n2)c(OC)c1 | 1.94
CCC(=O)NCc1c(O)c(=O)cc(C)n1C | -0.72
CC(N)C(=O)NC(Cc1c[nH]c2ccccc12)C(=O)O (stereo not drawn) | -2.21
Cc1oc2cc3oc(=O)ccc3c(C)c2c1C | 3.27
COC(=O)c1c(N2CCOCC2)c(-c2ccc(Cl)cc2)cn1C(=O)N1CCOCC1 | 3.1
COc1ccc(CNCC(O)CON=C(C2CC2)C2CC2)c(OC)c1 (stereo not drawn) | 2.22
O=C1C=C(N2CCCCC2)CN1c1ccc(Cl)cc1 | 3
CC(NC(=O)C(N)Cc1c[nH]c2ccccc12)C(=O)O (stereo not drawn) | -1.98
Cc1c(O)c(=O)ccn1CCCOC(=O)c1ccccc1O | 1.4
COc1cc(OC)nc(Sc2cccc(Oc3ccccc3)c2C(=O)O)n1 | 4.15
CON=C(C(=O)NC1C(=O)N2C(C(C)OC(C)=O)=CCSC12)c1csc(N)n1 (stereo not drawn) | 0.46
CC(C)(C)c1cc(O)cc(C(C)(C)C)c1 | 4.64
O=c1cc(CSc2ccccn2)occ1O | 1.14
CC(C)NCC(O)COc1ccc(Cc2nc(Br)c[nH]2)cc1 (stereo not drawn) | 2.2
CSc1cccc2nc(N)nc(N)c12 | 1.81
CN(C(=O)CO)c1c(I)c(C(=O)NCC(O)CO)c(I)c(C(=O)NCC(O)CO)c1I (stereo not drawn) | -2.79
CCCCCC(=O)OCC(=O)C1(O)C(C)CC2C3CCC4=CC(=O)C=CC4(C)C3(F)C(O)CC21C (stereo not drawn) | 4.3
COC(=O)c1[nH]cc(-c2ccc(Br)cc2)c1N1CCOCC1 | 3.8
COc1cc(-n2c(C(F)(F)F)nn(C)c2=S)cc(OC)c1OC | 2.04
N#CN=C1NCCN1Cc1cnccc1Cl | 0.77
CC(C)(C)[N+]([O-])=Cc1ccccc1[N+](=O)[O-] | 0.8
CC(=O)NCCC(=O)NCc1c(O)c(=O)cc(C)n1C | -1.7
O=C1C=C(N2CC2)C(=O)C=C1N1CC1 | 0.18
CCC(C)C(N)C(=O)NC(C(=O)NC(C(=O)O)C(C)O)C(C)CC (stereo not drawn) (H-Ile-Ile-Thr-OH; configuration not given here) | -2.23

Compound | logP
OCCCCCCCNc1[nH]cnc2ncnc1-2 | 1.73
O=C1C(O)N=C(c2ccccc2)c2cc(Cl)ccc2N1CCO (stereo not drawn) | 1.53
CCCCCCNCc1ccc(C)cc1 | 4.96
CCCCN(C)CC(=O)Nc1c(C)cccc1C | 2.74
CC(C)(C)c1ccc(OCC2CN=C(N)O2)cc1 (stereo not drawn) | 2.84
CC(C)(C)[N+]([O-])=Cc1ccc(Cl)cc1 | 2.4
COCCCNC(=O)Cn1cnc([N+](=O)[O-])n1 | -0.49
CC(C)NCC(O)COc1ccc(-c2nc(C(C)C)c[nH]2)cc1 (stereo not drawn) | 2.95
CCCN(CCc1cccs1)C1CCc2c(O)cccc2C1 (stereo not drawn) | 4.7
CC(C)SCc1cc(=O)c(O)co1 | 1.17
CC=C(C)C(=O)OCC1CCCC2(C)CCC(C(C)(C)O)CC12 (stereo not drawn) | 5.27
Brc1ccc2ccc3cccc4ccc1c2c34 | 5.81
Clc1ccc(N2CCN(CCCOn3nnc4ccccc43)CC2)cc1 | 4.15
COC(=O)c1[nH]cc(-c2ccc(Cl)cc2)c1N1CCOCC1 | 3.5
Cc1ccc(S(=O)(=O)C2(C(=O)OC(C)C)CCCCC2)cc1 | 3.21
O=C1N=C(N2CCOCC2)CN1c1ccc(Cl)c(Cl)c1 | 1.9
CON(C)C(=O)Nc1ccc(OC(C)CC2CCCCC2)cc1 (stereo not drawn) | 4.51
Cc1cccc2c1OCN(CCO[N+](=O)[O-])C2=O | 2.48
COC(=O)C(C)NP(=O)(OCC1C=CC(n2cc(C)c(=O)[nH]c2=O)O1)Oc1cccc(C(C)=O)c1 (stereo not drawn) | 0.92
Cc1nc2c3c(c(C(=O)N(C)C)cn2c1C(=O)N(C)C)CCC(c1ccccc1)O3 (stereo not drawn) | 1.89
Nc1nnnn1-c1ccccc1 | 0.69
CCC(C)C(N)C(=O)NC(C)C(=O)NCC(=O)NC(Cc1ccccc1)C(=O)O (stereo not drawn) (H-IAGF-OH; configuration not given here) | -1.78
Cc1ccc(OCC2CN=C(N)O2)cc1C (stereo not drawn) | 2.1
